US11000033B2, “Ketone or oxime compound, and herbicide” (NISSAN CHEMICAL CORPORATION, priority 2014, dated 2021)

Legend:
Type in all cases: in vivo
[1] = tested on: Echinochloa oryzacola Vasing.; assay: Test Example 1: herbicidal activity, application before weed generation in submerged conditions (symbol A); conditions: application herbicide amount 320 g/ha
Outline: (§1)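 Weed control was rated three weeks after treatment on a 0–5 scale, from 5% or lower up to 90% or more. Pre-emergence water-surface application of diluted emulsion at a predetermined rate was made on the day of sowing, in flooded (4 cm water) pots containing rice seedlings, kept at 25–30 °C under glass.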

Scirpus juncoides = assay: Test Example 1: herbicidal activity, application before weed generation in submerged conditions (symbol B); conditions: application herbicide amount 320 g/ha
Outline: as §1

[2] = tested on: Echinochloa crus-galli var. crus-galli; assay: Test Example 3: herbicidal effect by foliage application, Wagner pot (symbol H); conditions: application herbicide amount 320 g/ha
Outline: (§2)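 Post-emergence, paddy-type test: seedlings 14 d old in shallow-flooded (0.1–0.5 cm) alluvial soil, 25–30 °C greenhouse. Emulsion diluted to target rate, sprayed on leaves. Read-out: visual effect on each species at 3 weeks, per set criteria.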

Leptochloa chinensis = assay: Test Example 3: herbicidal effect by foliage application, Wagner pot (symbol D); conditions: application herbicide amount 320 g/ha
Outline: as §2

Cyperus difformis = assay: Test Example 3: herbicidal effect by foliage application, Wagner pot (symbol E); conditions: application herbicide amount 320 g/ha
Outline: as §2

[3] = tested on: directly sowed rice plant; assay: Test Example 3: effect on crop by foliage application, Wagner pot (symbol b); conditions: application herbicide amount 320 g/ha
Outline: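 Greenhouse culture at 25–30 °C of seeded rice, Cyperus difformis, Leptochloa chinensis and Echinochloa crus-galli var. crus-galli, in alluvial soil held under 0.1–0.5 cm of water in a Wagner pot.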

Digitaria ciliaris = assay: Test Example 4: herbicidal effect by soil treatment (symbol F); conditions: for F (Digitaria ciliaris) herbicidal effect grade: application herbicide amount 320 g/ha
Outline: (§3)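 Seeds were sown in sterilized diluvial soil, covered with about 1.5 cm of soil, and the soil surface was sprayed with a water-diluted emulsion of the compound at a predetermined rate. Plants grew in a greenhouse at 25° C. to 30° C.; effects were scored visually 3 weeks after application.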

Alopecurus myosuroides [4] = assay: Test Example 4: herbicidal effect by soil treatment (symbol J); conditions: for J (Alopecurus myosuroides) herbicidal effect grade: application herbicide amount 320 g/ha
Outline: as §3

corn = assay: Test Example 4: effect on crop by soil treatment (symbol c); conditions: for c (corn) effect on crop grade: application herbicide amount 320 g/ha
Outline: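 Plants are raised in a greenhouse (25° C. to 30° C.) from spot-sown seed, which sits under about 1.5 cm of sterilized diluvial soil in a box shared with weed species.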

rapeseed = assay: Test Example 4: effect on crop by soil treatment (symbol g); conditions: for g (rapeseed) effect on crop grade: application herbicide amount 320 g/ha
Outline: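 Diluvial soil (sterilized) in boxes; seeds placed spot-wise alongside weed species; ~1.5 cm covering soil. Greenhouse, 25–30° C.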

Alopecurus myosuroides [5] = assay: Test Example 5: herbicidal effect by foliage application, plastic box (symbol J); conditions: 320 g/ha, 3 weeks after application
Outline: (§4)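 Herbicide, formulated as an emulsion and diluted in water, is sprayed onto the aerial parts of 14-day seedlings. These were grown at 25° C. to 30° C. in sterilized diluvial soil; effects are graded after 3 weeks.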

Apera spica-venti = assay: Test Example 5: herbicidal effect by foliage application, plastic box (symbol L); conditions: 320 g/ha, 3 weeks after application
Outline: as §4

Abutilon theophrasti = assay: Test Example 5: herbicidal effect by foliage application, plastic box (symbol M); conditions: 320 g/ha, 3 weeks after application
Outline: as §4

Stellaria media = assay: Test Example 5: herbicidal effect by foliage application, plastic box (symbol P); conditions: 320 g/ha, 3 weeks after application
Outline: as §4

wheat = assay: Test Example 5: effect on crop by foliage application, plastic box (symbol e); conditions: 320 g/ha, 3 weeks after application
Outline: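 Box culture: sterile diluvial soil, seeds spot-sown, ~1.5 cm cover, raised under glass at 25–30° C.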

SMILES | Herbicidal effect grade, A: Echinochloa oryzacola Vasing. [1] | Herbicidal effect grade, B: Scirpus juncoides (Scirpus juncoides) | herbicidal effect on H (Echinochloa crus-galli var. crus-galli), grade 0-5 [2] | herbicidal effect on D (Leptochloa chinensis), grade 0-5 (Leptochloa chinensis) | herbicidal effect on E, grade 0-5 (Cyperus difformis) | effect on crop b (directly sowed rice plant), grade 0-5 [3] | F (Digitaria ciliaris) herbicidal effect grade (Digitaria ciliaris) | J (Alopecurus myosuroides) herbicidal effect grade (Alopecurus myosuroides [4]) | c (corn) effect on crop grade (corn) | g (rapeseed) effect on crop grade (rapeseed) | J: Alopecurus myosuroides, herbicidal effect grade (Alopecurus myosuroides [5]) | L: Apera spica-venti, herbicidal effect grade (Apera spica-venti) | M: Abutilon theophrasti, herbicidal effect grade (Abutilon theophrasti) | P: Stellaria media, herbicidal effect grade (Stellaria media) | e: wheat, effect on crop grade (wheat) | J: Alopecurus myosuroides, herbicidal effect (criteria 0-5) (Alopecurus myosuroides [5]) | L: Apera spica-venti, herbicidal effect (criteria 0-5) (Apera spica-venti) | M: Abutilon theophrasti, herbicidal effect (criteria 0-5) (Abutilon theophrasti) | P: Stellaria media, herbicidal effect (criteria 0-5) (Stellaria media) | e: wheat, effect on crop (criteria 0-5) (wheat) | further results
CCC(C)C(CC1CC(O)=C(c2c(C)cc(C)cc2C)C1=O)=NOC (stereo not drawn) [1-066] | 4 (Herbicidal ratio of 70% or higher and lower than 90%) | 0 (Herbicidal ratio of 5% or lower (almost no effect)) | 5 (Herbicidal ratio of 90% or more (almost completely withered)) | 2 (Herbicidal ratio of 20% or higher and lower than 40%) | 5 (Herbicidal ratio of 90% or more (almost completely withered)) | 5 (Herbicidal ratio of 90% or more (almost completely withered)) | 4 (Herbicidal ratio of 70% or higher and lower than 90%) | 5 (Herbicidal ratio of 90% or more (almost completely withered)) | 4 (Herbicidal ratio of 70% or higher and lower than 90%) | 0 (Herbicidal ratio of 5% or lower (almost no effect)) | 5 (Herbicidal ratio of 90% or more (almost completely withered)) | 4 (Herbicidal ratio of 70% or higher and lower than 90%) | 1 (Herbicidal ratio of 5% or higher and lower than 20%) | 0 (Herbicidal ratio of 5% or lower (almost no effect)) | 0 (Herbicidal ratio of 5% or lower (almost no effect)) | – | – | – | – | – | –
CON=C(C)CC1CC(OC(=O)COc2cccc(OC)c2)=C(c2c(C)cc(C)cc2C)C1=O (stereo not drawn) [1-068] | 5 (Herbicidal ratio of 90% or more (almost completely withered)) | 4 (Herbicidal ratio of 70% or higher and lower than 90%) | 5 (Herbicidal ratio of 90% or more (almost completely withered)) | 5 (Herbicidal ratio of 90% or more (almost completely withered)) | 5 (Herbicidal ratio of 90% or more (almost completely withered)) | 5 (Herbicidal ratio of 90% or more (almost completely withered)) | 5 (Herbicidal ratio of 90% or more (almost completely withered)) | 5 (Herbicidal ratio of 90% or more (almost completely withered)) | 5 (Herbicidal ratio of 90% or more (almost completely withered)) | 4 (Herbicidal ratio of 70% or higher and lower than 90%) | 5 (Herbicidal ratio of 90% or more (almost completely withered)) | 5 (Herbicidal ratio of 90% or more (almost completely withered)) | 5 (Herbicidal ratio of 90% or more (almost completely withered)) | 3 (Herbicidal ratio of 40% or higher and lower than 70%) | 5 (Herbicidal ratio of 90% or more (almost completely withered)) | – | – | – | – | – | –
CON=C(C)CC1CC(OC(=O)COc2ccc(OC)cc2)=C(c2c(C)cc(C)cc2C)C1=O (stereo not drawn) [1-069] | 5 (Herbicidal ratio of 90% or more (almost completely withered)) | 4 (Herbicidal ratio of 70% or higher and lower than 90%) | 5 (Herbicidal ratio of 90% or more (almost completely withered)) | 5 (Herbicidal ratio of 90% or more (almost completely withered)) | 5 (Herbicidal ratio of 90% or more (almost completely withered)) | 5 (Herbicidal ratio of 90% or more (almost completely withered)) | 5 (Herbicidal ratio of 90% or more (almost completely withered)) | 5 (Herbicidal ratio of 90% or more (almost completely withered)) | 5 (Herbicidal ratio of 90% or more (almost completely withered)) | 4 (Herbicidal ratio of 70% or higher and lower than 90%) | 5 (Herbicidal ratio of 90% or more (almost completely withered)) | 5 (Herbicidal ratio of 90% or more (almost completely withered)) | 5 (Herbicidal ratio of 90% or more (almost completely withered)) | 3 (Herbicidal ratio of 40% or higher and lower than 70%) | 5 (Herbicidal ratio of 90% or more (almost completely withered)) | – | – | – | – | – | –
CON=C(C)CC1CC(OC(=O)COc2ccc(F)cc2)=C(c2c(C)cc(C)cc2C)C1=O (stereo not drawn) [1-073] | 5 (Herbicidal ratio of 90% or more (almost completely withered)) | 5 (Herbicidal ratio of 90% or more (almost completely withered)) | 5 (Herbicidal ratio of 90% or more (almost completely withered)) | 5 (Herbicidal ratio of 90% or more (almost completely withered)) | 5 (Herbicidal ratio of 90% or more (almost completely withered)) | 5 (Herbicidal ratio of 90% or more (almost completely withered)) | 5 (Herbicidal ratio of 90% or more (almost completely withered)) | 5 (Herbicidal ratio of 90% or more (almost completely withered)) | 4 (Herbicidal ratio of 70% or higher and lower than 90%) | 4 (Herbicidal ratio of 70% or higher and lower than 90%) | – | – | – | – | – | 5 (Herbicidal ratio of 90% or more (almost completely withered)) | 5 (Herbicidal ratio of 90% or more (almost completely withered)) | 4 (Herbicidal ratio of 70% or higher and lower than 90%) | 2 (Herbicidal ratio of 20% or higher and lower than 40%) | 5 (Herbicidal ratio of 90% or more (almost completely withered)) | –
CON=C(C)CC1CC(OC(=O)COc2ccc(C=O)cc2)=C(c2c(C)cc(C)cc2C)C1=O (stereo not drawn) [1-079] | 5 (Herbicidal ratio of 90% or more (almost completely withered)) | 5 (Herbicidal ratio of 90% or more (almost completely withered)) | 5 (Herbicidal ratio of 90% or more (almost completely withered)) | 5 (Herbicidal ratio of 90% or more (almost completely withered)) | 5 (Herbicidal ratio of 90% or more (almost completely withered)) | 5 (Herbicidal ratio of 90% or more (almost completely withered)) | – | – | – | – | – | – | – | – | – | 5 (Herbicidal ratio of 90% or more (almost completely withered)) | 5 (Herbicidal ratio of 90% or more (almost completely withered)) | 4 (Herbicidal ratio of 70% or higher and lower than 90%) | 1 (Herbicidal ratio of 5% or higher and lower than 20%) | 4 (Herbicidal ratio of 70% or higher and lower than 90%) | F: Digitaria ciliaris, herbicidal effect grade (Digitaria ciliaris; 320 g/ha): 5 (Herbicidal ratio of 90% or more (almost completely withered)); J: Alopecurus myosuroides, herbicidal effect grade (Alopecurus myosuroides [4]; 320 g/ha): 5 (Herbicidal ratio of 90% or more (almost completely withered)); c: corn, effect grade on crop (corn; 320 g/ha): 4 (Herbicidal ratio of 70% or higher and lower than 90%); g: rapeseed, effect grade on crop (rapeseed; 320 g/ha): 4 (Herbicidal ratio of 70% or higher and lower than 90%)
